Earlier results, collected in patent US7390505B2, “Nanoparticulate topiramate formulations” (Elan Pharma International, Ltd., priority 2003, dated 2008).

What was measured:
[1] = human, in vivo
[2] = not given; remark: listed apart in the source

Structure (SMILES): CC1(C)O[C@@H]2[C@@H](CO[C@@]3(COS(N)(=O)=O)OC(C)(C)O[C@@H]23)O1 [Topiramate, 2,3:4,5-Di-O-isopropylidene-β-D-fructopyranose sulfamate]
- solubility in organic solvents (acetone, chloroform, dimethylsulfoxide, and ethanol): freely soluble
- solubility in alkaline solutions (solutions containing sodium hydroxide or sodium phosphate, pH of 9 to 10): most soluble
- incidence of ataxia, impaired concentration, confusion, dizziness, fatigue, paraesthesia, somnolence and abnormal thinking [1]: ≥ 5 % of patients
- patients who withdrew because of side effects ([2]; 96 mg/d or 192 mg/d): 19%
- withdrawal due to depression ([2]; in vivo): 3%
- withdrawal due to difficulty with memory ([2]; in vivo): 3%
- withdrawal due to paraesthesia ([2]; in vivo): 5 % of patients
